# In PubChem BioAssay AID1259407 (Chemical Carcinogenesis Research Information System (CCRIS), 2018):
# Active and inactive are the calls of the source. No rule for the calls is given here.
# Tested on: CCRIS mutagenicity, Ames/micronucleus/aberration tests
# Experiment: CCRIS mutagenicity studies
structure (smiles),measurement,setting,value
CC(=O)Nc1ccc(C(=O)CCl)cc1,mutagenic call,"Test System: AMES SALMONELLA TYPHIMURIUM, Strain/Indicator: TA98, Metabolic Activation: HAMSTER, LIVER, S-9, AROCLOR 1254, Method: STANDARD PLATE",active; positive
same,mutagenic call,"Test System: AMES SALMONELLA TYPHIMURIUM, Strain/Indicator: TA98, Metabolic Activation: HAMSTER, LIVER, S-9, Method: STANDARD PLATE",active; positive
same,mutagenic call,"Test System: AMES SALMONELLA TYPHIMURIUM, Strain/Indicator: TA98, Metabolic Activation: MOUSE, LIVER, S-9, Method: STANDARD PLATE",inactive; negative
same,mutagenic call,"Test System: AMES SALMONELLA TYPHIMURIUM, Strain/Indicator: TA98, Metabolic Activation: NONE",active; positive
same,mutagenic call,"Test System: AMES SALMONELLA TYPHIMURIUM, Strain/Indicator: TA98, Metabolic Activation: RAT, LIVER, S-9, AROCLOR 1254, Method: STANDARD PLATE",inactive; negative
same,mutagenic call,"Test System: AMES SALMONELLA TYPHIMURIUM, Strain/Indicator: TA98, Metabolic Activation: RAT, LIVER, S-9, PHENOBARBITONE AND BETA-NAPHTHOFLAVONE",active; positive
same,mutagenic call,"Test System: AMES SALMONELLA TYPHIMURIUM, Strain/Indicator: TA98, Metabolic Activation: RAT, LIVER, S-9, Method: STANDARD PLATE",inactive; negative
same,mutagenic call,"Test System: AMES SALMONELLA TYPHIMURIUM, Strain/Indicator: TA100, Metabolic Activation: HAMSTER, LIVER, S-9, AROCLOR 1254, Method: STANDARD PLATE",inactive; negative
same,mutagenic call,"Test System: AMES SALMONELLA TYPHIMURIUM, Strain/Indicator: TA100, Metabolic Activation: HAMSTER, LIVER, S-9, Method: STANDARD PLATE",inactive; negative
same,mutagenic call,"Test System: AMES SALMONELLA TYPHIMURIUM, Strain/Indicator: TA100, Metabolic Activation: MOUSE, LIVER, S-9, AROCLOR 1254, Method: STANDARD PLATE",inactive; negative
same,mutagenic call,"Test System: AMES SALMONELLA TYPHIMURIUM, Strain/Indicator: TA100, Metabolic Activation: MOUSE, LIVER, S-9, Method: STANDARD PLATE",inactive; negative
same,mutagenic call,"Test System: AMES SALMONELLA TYPHIMURIUM, Strain/Indicator: TA100, Metabolic Activation: NONE",inactive; negative
same,mutagenic call,"Test System: AMES SALMONELLA TYPHIMURIUM, Strain/Indicator: TA100, Metabolic Activation: NONE, Method: STANDARD PLATE",inactive; negative
same,mutagenic call,"Test System: AMES SALMONELLA TYPHIMURIUM, Strain/Indicator: TA100, Metabolic Activation: RAT, LIVER, S-9, AROCLOR 1254, Method: STANDARD PLATE",inactive; negative
same,mutagenic call,"Test System: AMES SALMONELLA TYPHIMURIUM, Strain/Indicator: TA100, Metabolic Activation: RAT, LIVER, S-9, PHENOBARBITONE AND BETA-NAPHTHOFLAVONE",inactive; negative
same,mutagenic call,"Test System: AMES SALMONELLA TYPHIMURIUM, Strain/Indicator: TA100, Metabolic Activation: RAT, LIVER, S-9, Method: STANDARD PLATE",inactive; negative
same,mutagenic call,"Test System: AMES SALMONELLA TYPHIMURIUM, Strain/Indicator: TA1535, Metabolic Activation: HAMSTER, LIVER, S-9, AROCLOR 1254, Method: STANDARD PLATE",inactive; negative
same,mutagenic call,"Test System: AMES SALMONELLA TYPHIMURIUM, Strain/Indicator: TA1535, Metabolic Activation: HAMSTER, LIVER, S-9, Method: STANDARD PLATE",inactive; negative
same,mutagenic call,"Test System: AMES SALMONELLA TYPHIMURIUM, Strain/Indicator: TA1535, Metabolic Activation: MOUSE, LIVER, S-9, AROCLOR 1254, Method: STANDARD PLATE",inactive; negative
same,mutagenic call,"Test System: AMES SALMONELLA TYPHIMURIUM, Strain/Indicator: TA1535, Metabolic Activation: MOUSE, LIVER, S-9, Method: STANDARD PLATE",inactive; negative
same,mutagenic call,"Test System: AMES SALMONELLA TYPHIMURIUM, Strain/Indicator: TA1535, Metabolic Activation: NONE, Method: STANDARD PLATE",inactive; negative
same,mutagenic call,"Test System: AMES SALMONELLA TYPHIMURIUM, Strain/Indicator: TA1535, Metabolic Activation: RAT, LIVER, S-9, AROCLOR 1254, Method: STANDARD PLATE",inactive; negative
same,mutagenic call,"Test System: AMES SALMONELLA TYPHIMURIUM, Strain/Indicator: TA1535, Metabolic Activation: RAT, LIVER, S-9, Method: STANDARD PLATE",inactive; negative
same,mutagenic call,"Test System: AMES SALMONELLA TYPHIMURIUM, Strain/Indicator: TA1537, Metabolic Activation: HAMSTER, LIVER, S-9, Method: STANDARD PLATE",inactive; negative
same,mutagenic call,"Test System: AMES SALMONELLA TYPHIMURIUM, Strain/Indicator: TA1537, Metabolic Activation: MOUSE, LIVER, S-9, Method: STANDARD PLATE",inactive; negative
same,mutagenic call,"Test System: AMES SALMONELLA TYPHIMURIUM, Strain/Indicator: TA1538, Metabolic Activation: NONE",inactive; negative
same,mutagenic call,"Test System: AMES SALMONELLA TYPHIMURIUM, Strain/Indicator: TA1538, Metabolic Activation: RAT, LIVER, S-9, AROCLOR 1254, Method: STANDARD PLATE",inactive; negative
same,mutagenic call,"Test System: AMES SALMONELLA TYPHIMURIUM, Strain/Indicator: TA1538, Metabolic Activation: RAT, LIVER, S-9, PHENOBARBITONE AND BETA-NAPHTHOFLAVONE",active; positive
same,mutagenic call,"Test System: AMES SALMONELLA TYPHIMURIUM, Strain/Indicator: TA1538, Metabolic Activation: RAT, LIVER, S-9, Method: STANDARD PLATE",inactive; negative
same,mutagenic call,"Test System: E. COLI, Strain/Indicator: WP2 UVRA, Metabolic Activation: HAMSTER, LIVER, S-9, AROCLOR 1254, Method: STANDARD PLATE",inactive; negative
same,mutagenic call,"Test System: E. COLI, Strain/Indicator: WP2 UVRA, Metabolic Activation: HAMSTER, LIVER, S-9, Method: STANDARD PLATE",inactive; negative
same,mutagenic call,"Test System: E. COLI, Strain/Indicator: WP2 UVRA, Metabolic Activation: MOUSE, LIVER, S-9, Method: STANDARD PLATE",inactive; negative
same,mutagenic call,"Test System: E. COLI, Strain/Indicator: WP2 UVRA, Metabolic Activation: NONE, Method: STANDARD PLATE",inactive; negative
same,mutagenic call,"Test System: E. COLI, Strain/Indicator: WP2 UVRA, Metabolic Activation: RAT, LIVER, S-9, AROCLOR 1254, Method: STANDARD PLATE",inactive; negative
same,mutagenic call,"Test System: E. COLI, Strain/Indicator: WP2 UVRA, Metabolic Activation: RAT, LIVER, S-9, Method: STANDARD PLATE",inactive; negative
